Assay results taken from US11292802B2, “Substituted tetrahydropyrrolo[1,2-a]pyrazines as alpha v integrin inhibitors” (BRISTOL-MYERS SQUIBB COMPANY, priority 2017, dated 2022).

Target: T1, human αVβ6 (Homo sapiens, UniProt P06756+P18564)
T1 construct: purchased R & D systems 3817-AV
Assay: human αVβ6 HTRF binding assay
Conditions: biotinylated recombinant human αVβ6 integrin 1.25 nM, FITC-conjugated fibronectin 5 nM
Description: All binding assays used the HTRF (homogeneous time resolved fluorescence) technology from Cisbio International, therefore all assays are described as HTRF binding assays. The assay results for the Examples are listed in Table 1, exemplified by human αVβ6 (?). The HTRF binding assays are established for the following integrins: human αVβ6, human αVβ1, human αVβ3, human αVβ5, and human αVβ8. All assays used the following assay buffer: 20 mM Tris, pH 7.4, 1 mM MgCl2, 1 mM MnCl2, 0.01% Tween 20, and 0.01% BSA. Alternatively, a SPA-based assay was used for evaluation of receptor binding.
[…]

T1 sequence (P06756 31-992 limits assumed): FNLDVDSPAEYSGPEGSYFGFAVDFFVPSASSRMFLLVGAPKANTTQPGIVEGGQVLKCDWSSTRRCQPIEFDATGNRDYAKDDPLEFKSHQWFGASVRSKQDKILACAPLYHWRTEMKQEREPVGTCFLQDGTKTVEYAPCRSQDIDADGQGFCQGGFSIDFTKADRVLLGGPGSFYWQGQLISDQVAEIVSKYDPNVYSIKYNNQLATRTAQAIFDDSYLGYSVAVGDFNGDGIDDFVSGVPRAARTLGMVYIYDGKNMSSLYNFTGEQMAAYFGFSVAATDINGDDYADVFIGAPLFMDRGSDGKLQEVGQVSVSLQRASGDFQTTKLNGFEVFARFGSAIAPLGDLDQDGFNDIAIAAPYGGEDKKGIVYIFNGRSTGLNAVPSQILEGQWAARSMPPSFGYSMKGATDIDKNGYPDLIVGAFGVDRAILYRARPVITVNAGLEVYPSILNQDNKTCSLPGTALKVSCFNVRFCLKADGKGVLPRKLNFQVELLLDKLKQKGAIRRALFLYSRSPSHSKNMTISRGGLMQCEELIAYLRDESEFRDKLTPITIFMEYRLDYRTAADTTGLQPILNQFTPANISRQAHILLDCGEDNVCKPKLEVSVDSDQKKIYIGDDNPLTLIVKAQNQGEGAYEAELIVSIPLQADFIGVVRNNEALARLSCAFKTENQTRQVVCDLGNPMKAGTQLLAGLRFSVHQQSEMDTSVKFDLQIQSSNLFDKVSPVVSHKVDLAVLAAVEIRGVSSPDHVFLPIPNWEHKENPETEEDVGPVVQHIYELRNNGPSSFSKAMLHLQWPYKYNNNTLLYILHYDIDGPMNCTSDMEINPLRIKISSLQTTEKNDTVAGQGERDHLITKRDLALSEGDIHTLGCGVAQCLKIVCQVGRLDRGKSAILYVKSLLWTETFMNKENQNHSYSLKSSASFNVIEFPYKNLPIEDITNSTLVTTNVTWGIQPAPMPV
T1 sequence (P18564 22-707 limits assumed): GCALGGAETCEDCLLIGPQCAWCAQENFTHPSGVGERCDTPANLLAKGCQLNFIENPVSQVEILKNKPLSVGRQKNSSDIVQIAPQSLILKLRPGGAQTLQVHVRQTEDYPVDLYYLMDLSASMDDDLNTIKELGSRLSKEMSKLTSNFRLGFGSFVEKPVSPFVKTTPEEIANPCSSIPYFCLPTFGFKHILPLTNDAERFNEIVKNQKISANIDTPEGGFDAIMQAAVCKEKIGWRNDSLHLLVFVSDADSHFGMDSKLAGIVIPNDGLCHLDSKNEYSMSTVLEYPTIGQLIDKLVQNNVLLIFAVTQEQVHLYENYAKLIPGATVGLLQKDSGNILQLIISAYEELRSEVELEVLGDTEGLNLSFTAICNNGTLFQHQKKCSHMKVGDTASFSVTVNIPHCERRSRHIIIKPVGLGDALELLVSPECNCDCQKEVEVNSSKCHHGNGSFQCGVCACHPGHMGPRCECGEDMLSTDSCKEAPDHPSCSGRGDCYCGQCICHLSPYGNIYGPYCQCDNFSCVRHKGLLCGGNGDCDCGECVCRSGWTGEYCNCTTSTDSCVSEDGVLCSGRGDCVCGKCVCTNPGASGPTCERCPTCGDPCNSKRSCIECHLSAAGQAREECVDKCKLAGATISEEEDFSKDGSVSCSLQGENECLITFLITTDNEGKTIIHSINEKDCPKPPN

Compound | IC50 [nM]
COc1ccc([C@H](CC(=O)O)N2CCn3cc(CCC4CCc5cccnc5N4)cc3C2=O)cn1 (mixture of isomers) [Example 9] | 0.6
COc1ccc([C@H](CC(=O)O)N2CCn3cc(CCC4CCc5cccnc5N4)cc3C2=O)cn1 (single isomer, unassigned) [Example 12] | 3.2
COc1ccc([C@H](CC(=O)O)N2CCn3cc(CCc4ccc5c(n4)NCCC5)cc3C2=O)cn1 [Example 3, (S)-3-(6-Methoxypyridin-3-yl)-3-(1-oxo-7-(2-(5,6,7,8-tetrahydro-1,8-naphthyridin-2-yl)ethyl)-3,4-dihydropyrrolo[1,2-a]pyrazin-2(1H)-yl)propanoic acid] | 2.4
COc1ccc([C@@H](CC(=O)O)N2CCn3cc(CCc4ccc5c(n4)NCCC5)cc3C2=O)cc1F [Example 4] | 80
COc1ccc([C@H](CC(=O)O)N2CCn3c(cc(CCc4ccc5c(n4)NCCC5)c3C)C2=O)cc1F [Example 7] | 69
COc1ccc([C@H](CC(=O)O)N2CCn3cc(C(Cc4ccc5c(n4)NCCC5)Cc4ccc5c(n4)NCCC5)cc3C2=O)cc1F [Example 10] | 1.3
Cc1ncc(C(CC(=O)O)N2CCn3cc(CCc4ccc5c(n4)NCCC5)cc3C2=O)cn1 (stereo not shown) [Example 13] | 7.2
O=C(O)C[C@@H](c1cnc2ccccc2c1)N1CCn2cc(CCc3ccc4c(n3)NCCC4)cc2C1=O [Example 16] | 1.8
O=C(O)C[C@@H](c1cnc2ccccc2c1)N1CCn2cc(CCCc3ccc4c(n3)NCCC4)cc2C1=O [Example 19] | 6.5
COc1ncc([C@H](CC(=O)O)N2CCn3cc(CCCc4ccc5c(n4)NCCC5)cc3C2=O)cn1 [Example 20] | 3.4
Cc1ncc([C@H](CC(=O)O)N2CCn3cc(CCCc4ccc5c(n4)NCCC5)cc3C2=O)cn1 [Example 21] | 5.6
CC(C)COc1ccc([C@H](CC(=O)O)N2CCn3cc(CCc4ccc5c(n4)NCCC5)cc3C2=O)cn1 [Example 22, (S)-3-(6-Isobutoxypyridin-3-yl)-3-(1-oxo-7-(2-(5,6,7,8-tetrahydro-1,8-naphthyridin-2-yl)ethyl)-3,4-dihydropyrrolo[1,2-a]pyrazin-2(1H)-yl)propanoic acid] | 1.6
O=C(O)C[C@@H](c1ccc(OCC2CC2)nc1)N1CCn2cc(CCc3ccc4c(n3)NCCC4)cc2C1=O [Example 24, (S)-3-(6-(Cyclopropylmethoxy)pyridin-3-yl)-3-(1-oxo-7-(2-(5,6,7,8-tetrahydro-1,8-naphthyridin-2-yl)ethyl)-3,4-dihydropyrrolo[1,2-a]pyrazin-2(1H)-yl)propanoic acid] | 1.6
O=C(N[C@@H](CN1CCn2cc(CCc3ccc4c(n3)NCCC4)cc2C1=O)C(=O)O)OCc1ccccc1 [Example 25, (S)-2-(((Benzyloxy)carbonyl)amino)-3-(1-oxo-7-(2-(5,6,7,8-tetrahydro-1,8-naphthyridin-2-yl)ethyl)-3,4-dihydropyrrolo[1,2-a]pyrazin-2(1H)-yl)propanoic acid] | 4.6
COc1ccc([C@H](CC(=O)O)N2CCn3c(cc(CCc4ccc5c(n4)NCCC5)c3I)C2=O)cc1F [Example 26, (S)-3-(3-Fluoro-4-methoxyphenyl)-3-(6-iodo-1-oxo-7-(2-(5,6,7,8-tetrahydro-1,8-naphthyridin-2-yl)ethyl)-3,4-dihydropyrrolo[1,2-a]pyrazin-2(1H)-yl)propanoic acid] | 53
O=C(O)C[C@@H](c1ccc(O)c(F)c1)N1CCn2cc(CCc3ccc4c(n3)NCCC4)cc2C1=O [Example 27, (S)-3-(3-Fluoro-4-hydroxyphenyl)-3-(1-oxo-7-(2-(5,6,7,8-tetrahydro-1,8-naphthyridin-2-yl)ethyl)-3,4-dihydropyrrolo[1,2-a]pyrazin-2(1H)-yl)propanoic acid] | 4.8
COc1ccc([C@H](CC(=O)O)N2CCn3cc(Cc4ccc5c(n4)NCCC5)cc3C2=O)cc1F [Example 29, (S)-3-(3-Fluoro-4-methoxyphenyl)-3-(1-oxo-7-((5,6,7,8-tetrahydro-1,8-naphthyridin-2-yl)methyl)-3,4-dihydropyrrolo[1,2-a]pyrazin-2(1H)-yl)propanoic acid] | 0.73
COc1ccc([C@H](CC(=O)O)N2CCn3cc(CCCCc4ccc5c(n4)NCCC5)cc3C2=O)cc1F [Example 31, (S)-3-(3-Fluoro-4-methoxyphenyl)-3-(1-oxo-7-(4-(5,6,7,8-tetrahydro-1,8-naphthyridin-2-yl)butyl)-3,4-dihydropyrrolo[1,2-a]pyrazin-2(1H)-yl)propanoic acid] | 12
(S)-3-(3-Fluoro-4-methoxyphenyl)-3-(1-oxo-7-(4-(5,6,7,8-tetrahydro-1,8-naphthyridin-2-yl)butyl)-3,4-dihydropyrrolo[1,2-a]pyrazin-2(1H)-yl)propanoic acid, TFA [Example 32] | 410

More lines, in order of falling IC50, values ahead:

IC50 [nM] | Compound
340 | COc1ccc([C@H](CC(=O)O)N2CCn3cc(-c4ccc5c(n4)NCCC5)cc3C2=O)cc1F [Example 28, (S)-3-(3-Fluoro-4-methoxyphenyl)-3-(1-oxo-7-(5,6,7,8-tetrahydro-1,8-naphthyridin-2-yl)-3,4-dihydropyrrolo[1,2-a]pyrazin-2(1H)-yl)propanoic acid]
140 | O=C(O)CC(c1cnc2ccccc2n1)N1CCn2cc(CCc3ccc4c(n3)NCCC4)cc2C1=O (stereo not shown) [Example 18]
25 | Cc1cc(C)c(S(=O)(=O)N[C@@H](CN2CCn3cc(CCc4ccc5c(n4)NCCC5)cc3C2=O)C(=O)O)c(C)c1 [Example 8]
23 | O=C(O)CC(c1cncnc1)N1CCn2cc(CCc3ccc4c(n3)NCCC4)cc2C1=O (stereo not shown) [Example 15]
3.2 | COc1ccc([C@H](CC(=O)O)N2CCn3cc(CCc4ccc5c(n4)NCCC5)cc3C2=O)cc1F [Example 1, (S)-3-(3-Fluoro-4-methoxyphenyl)-3-(1-oxo-7-(2-(5,6,7,8-tetrahydro-1,8-naphthyridin-2-yl)ethyl)-3,4-dihydropyrrolo[1,2-a]pyrazin-2(1H)-yl)propanoic acid]
2.6 | O=C(O)C[C@@H](c1ccc2c(c1)OCC2)N1CCn2cc(CCc3ccc4c(n3)NCCC4)cc2C1=O [Example 17]
2.3 | COc1ccc([C@H](CC(=O)O)N2CCn3cc(CCC4CCc5cccnc5N4)cc3C2=O)cn1 (single isomer, unassigned) [Example 11]
1.6 | CCOc1ccc([C@H](CC(=O)O)N2CCn3cc(CCc4ccc5c(n4)NCCC5)cc3C2=O)cn1 [Example 23, (S)-3-(6-Ethoxypyridin-3-yl)-3-(1-oxo-7-(2-(5,6,7,8-tetrahydro-1,8-naphthyridin-2-yl)ethyl)-3,4-dihydropyrrolo[1,2-a]pyrazin-2(1H)-yl)propanoic acid]
1.1 | COc1ccc([C@H](CC(=O)O)N2CCn3cc(CCCc4ccc5c(n4)NCCC5)cc3C2=O)cn1 [Example 30, (S)-3-(6-Methoxypyridin-3-yl)-3-(1-oxo-7-(3-(5,6,7,8-tetrahydro-1,8-naphthyridin-2-yl)propyl)-3,4-dihydropyrrolo[1,2-a]pyrazin-2(1H)-yl)propanoic acid]
0.98 | O=C(O)C[C@@H](c1cc(Cl)cc(Cl)c1)N1CCn2cc(CCc3ccc4c(n3)NCCC4)cc2C1=O [Example 6]
0.59 | CC(C)(C)c1cc(Br)cc([C@H](CC(=O)O)N2CCn3cc(CCc4ccc5c(n4)NCCC5)cc3C2=O)c1 [Example 5]
0.51 | COc1ccc([C@H](CC(=O)O)N2CCn3cc(CCC4CCc5cccnc5N4)cc3C2=O)cc1F (mixture of isomers) [Example 2, (3S)-3-(3-Fluoro-4-methoxyphenyl)-3-(1-oxo-7-(2-(1,2,3,4-tetrahydro-1,8-naphthyridin-2-yl)ethyl)-3,4-dihydropyrrolo[1,2-a]pyrazin-2(1H)-yl)propanoic acid]
